Test results from ChEMBL document CHEMBL2040778, “The binding of C5-alkynyl and alkylfurano[2,3-d]pyrimidine glucopyranonucleosides to glycogen phosphorylase b: synthesis, biochemical and biological assessment” (Eur J Med Chem, 2012).
pIC50, pKi: −log10 of the molar value.

Assays:
[1] = molecular target: Glycogen phosphorylase, muscle form, Oryctolagus cuniculus (UniProt P00489); assay: Inhibition of glycogen phosphorylase b
[2] = molecular target: T1, Glycogen phosphorylase, muscle form (Oryctolagus cuniculus, UniProt P00489); assay: Competitive inhibition of rabbit skeletal muscle glycogen phosphorylase b using Glc-1-P as substrate; parameters: species or system Muscle tissue
T1 sequence (P00489 whole entry): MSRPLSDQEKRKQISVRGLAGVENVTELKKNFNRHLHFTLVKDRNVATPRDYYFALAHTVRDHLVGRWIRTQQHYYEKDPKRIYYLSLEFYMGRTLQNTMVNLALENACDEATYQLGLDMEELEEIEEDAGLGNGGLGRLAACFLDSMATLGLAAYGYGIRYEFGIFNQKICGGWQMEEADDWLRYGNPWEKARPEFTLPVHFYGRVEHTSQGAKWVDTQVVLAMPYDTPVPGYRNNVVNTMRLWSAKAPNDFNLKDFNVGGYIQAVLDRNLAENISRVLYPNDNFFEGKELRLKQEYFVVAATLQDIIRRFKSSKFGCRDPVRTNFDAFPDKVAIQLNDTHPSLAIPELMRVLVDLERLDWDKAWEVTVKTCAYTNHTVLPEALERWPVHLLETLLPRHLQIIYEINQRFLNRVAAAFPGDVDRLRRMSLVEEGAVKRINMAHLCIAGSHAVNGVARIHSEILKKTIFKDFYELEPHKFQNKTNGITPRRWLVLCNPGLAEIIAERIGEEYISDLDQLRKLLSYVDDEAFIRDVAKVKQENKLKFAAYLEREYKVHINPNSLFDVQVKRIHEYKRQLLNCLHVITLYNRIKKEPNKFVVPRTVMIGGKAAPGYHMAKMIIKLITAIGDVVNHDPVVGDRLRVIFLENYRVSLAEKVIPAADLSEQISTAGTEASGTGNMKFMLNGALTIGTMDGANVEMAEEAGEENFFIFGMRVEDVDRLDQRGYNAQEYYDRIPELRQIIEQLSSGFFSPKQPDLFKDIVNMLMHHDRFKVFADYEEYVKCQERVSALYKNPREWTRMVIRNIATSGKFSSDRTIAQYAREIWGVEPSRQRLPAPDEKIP

[3] = system: HepG2; assay: Cytotoxicity against human HepG2 cells assessed as decrease in viability up to 500 uM after 6 hrs by MTT assay relative to control; assay type: cell-based; conditions: hepg2, 6 h
[4] = molecular target: T2, Glycogen phosphorylase, muscle form (Homo sapiens, UniProt P11217); assay: Inhibition of glycogen phosphorylase b in human HepG2 cells after 3 hrs; assay type: cell-based
T2 sequence (P11217 whole entry): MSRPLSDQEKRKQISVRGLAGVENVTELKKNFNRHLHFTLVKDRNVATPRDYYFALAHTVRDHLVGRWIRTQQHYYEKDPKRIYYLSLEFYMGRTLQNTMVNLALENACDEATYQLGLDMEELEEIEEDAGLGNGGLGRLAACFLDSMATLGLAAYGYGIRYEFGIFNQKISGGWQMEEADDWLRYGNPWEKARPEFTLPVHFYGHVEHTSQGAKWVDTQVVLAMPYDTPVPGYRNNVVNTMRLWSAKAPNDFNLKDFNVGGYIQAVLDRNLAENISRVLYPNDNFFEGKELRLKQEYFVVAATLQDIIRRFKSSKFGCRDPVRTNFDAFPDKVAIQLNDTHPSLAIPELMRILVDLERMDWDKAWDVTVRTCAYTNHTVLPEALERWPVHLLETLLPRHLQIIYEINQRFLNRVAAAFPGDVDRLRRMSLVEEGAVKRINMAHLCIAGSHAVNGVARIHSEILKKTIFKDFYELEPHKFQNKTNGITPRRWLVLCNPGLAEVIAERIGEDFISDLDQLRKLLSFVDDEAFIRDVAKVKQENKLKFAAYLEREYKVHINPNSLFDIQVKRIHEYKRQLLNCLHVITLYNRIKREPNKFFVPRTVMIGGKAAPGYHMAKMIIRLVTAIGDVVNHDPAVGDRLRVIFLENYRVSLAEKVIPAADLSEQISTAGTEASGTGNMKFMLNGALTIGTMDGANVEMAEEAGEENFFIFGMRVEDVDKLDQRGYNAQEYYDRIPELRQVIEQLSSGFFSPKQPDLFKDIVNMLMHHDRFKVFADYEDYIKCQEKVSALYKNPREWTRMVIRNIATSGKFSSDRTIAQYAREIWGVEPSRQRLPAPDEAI

[5] = system: HepG2; assay: Cytotoxicity against human HepG2 cells up to 150 uM after 6 hrs by MTT assay; assay type: cell-based; conditions: hepg2, 6 h

Row | SMILES | pKi [1] | pKi [2] | other results
1 | O=c1[nH]c(=O)n([C@@H]2O[C@H](CO)[C@@H](O)[C@H](O)[C@H]2O)cc1I | 5.71 | – | –
2 | CCCCCC#Cc1cn([C@@H]2O[C@H](CO)[C@@H](O)[C@H](O)[C@H]2O)c(=O)[nH]c1=O | – | – | pIC50 [2]: 2.21
3 | C#Cc1cn([C@@H]2O[C@H](CO)[C@@H](O)[C@H](O)[C@H]2O)c(=O)[nH]c1=O | – | 5.33 | Activity [3]: 10%; pIC50 [4]: 3.54; Activity [5]: Non-toxic
4 | CCCc1cc2cn([C@@H]3O[C@H](CO)[C@@H](O)[C@H](O)[C@H]3O)c(=O)nc2o1 | – | 4.49 | –
5 | CCCCCc1cc2cn([C@@H]3O[C@H](CO)[C@@H](O)[C@H](O)[C@H]3O)c(=O)nc2o1 | – | 4.48 | –

Second part, led by results:

Row | pKi [1] | pKi [2] | SMILES | other results
6 | – | 3.52 | CCCC#Cc1cn([C@@H]2O[C@H](CO)[C@@H](O)[C@H](O)[C@H]2O)c(=O)[nH]c1=O | –
7 | 5.99 | 5.99 | O=c1[nH]c(=O)n([C@@H]2O[C@H](CO)[C@@H](O)[C@H](O)[C@H]2O)cc1Cl | –
8 | 5.49 | – | O=c1[nH]c(=O)n([C@@H]2O[C@H](CO)[C@@H](O)[C@H](O)[C@H]2O)cc1Br | –
